Measurements reported in US4272437A, “Antibacterial agents, and 4-thio azetidinone intermediates” (priority 1979, dated 1981).
Values after ≈ are worked out from the molar mass of the structure shown. Read-outs that look alike come from different tables or passages of the source.

What was measured:
Pr. vulgaris A-9716 = assay: MIC, tube dilution, Proteus vulgaris / Proteus mirabilis A9716; assay type: cell-based, Proteus vulgaris (name changed to Proteus mirabilis); details: Proteus vulgaris, A9716, Proteus vulgaris / Proteus mirabilis A9716; overnight 37° C.; read-out: Minimum Inhibitory Concentration (M.I.C.)
Text: (§1) Representative compounds of the present invention were subjected to in vitro antibiotic screening against a variety of microorganisms.

Staph. aureus A-9537 = assay: MIC, tube dilution, Staphylococcus aureus A9537; assay type: cell-based; details: overnight 37° C., Nutrient Broth; for MIC: Staphylococcus aureus, A9537, Staph. aureus A9537, read-out: Minimum Inhibitory Concentration (M.I.C.)
Text: as §1

Ps. aeruginosa A-9843A = assay: MIC, tube dilution, Pseudomonas aeruginosa A9843A; assay type: cell-based; details: overnight 37° C.; for MIC: Pseudomonas aeruginosa, A9843A, read-out: Minimum Inhibitory Concentration (M.I.C.), Pseudomonas aeruginosa A9843A
Text: as §1

Ent. cloacae A-9659 = assay: MIC, tube dilution, Enterobacter cloacae A9659; assay type: cell-based; details: overnight 37° C.; for MIC: Enterobacter cloacae, A9659, Enterobacter cloacae A9659, read-out: Minimum Inhibitory Concentration (M.I.C.)
Text: as §1

E. coli A-15119 = assay: MIC, tube dilution, Escherichia coli A15119; assay type: cell-based; details: overnight 37° C.; for MIC: Escherichia coli, A15119, E. coli A15119, read-out: Minimum Inhibitory Concentration (M.I.C.)
Text: as §1

Proteus rettgeri A21203 = assay: MIC, tube dilution, Proteus rettgeri A21203; assay type: cell-based; details: overnight 37° C.; for MIC: Providencia rettgeri, A21203, Proteus rettgeri A21203, read-out: Minimum Inhibitory Concentration (M.I.C.)
Text: as §1

[1] = system: Klebsiella species A20468; assay: MIC, tube dilution, Klebsiella species A20468; assay type: cell-based; details: Klebsiella species (K. pneumoniae) A20468, overnight 37° C.; for MIC: read-out: Minimum Inhibitory Concentration (M.I.C.)
Text: as §1

Pr. mirabilis A-9900 = assay: MIC, tube dilution, Proteus mirabilis A9900; assay type: cell-based; details: overnight 37° C.; for MIC: Proteus mirabilis, A9900, Proteus mirabilis A9900, read-out: Minimum Inhibitory Concentration (M.I.C.)
Text: as §1

Str. pyogenes A-9604 = assay: MIC, tube dilution, Streptococcus pyogenes A9604; assay type: cell-based; details: overnight 37° C., Nutrient Broth; for MIC: Streptococcus pyogenes, A9604, Str. pyogenes A9604, read-out: Minimum Inhibitory Concentration (M.I.C.)
Text: as §1

[2] = system: Staph. aureus (Pen-Res) A-9606; assay: MIC, tube dilution, Staphylococcus aureus A9606 (Pen-Res); assay type: cell-based; details: Staph. aureus A9606 (Pen-Res), overnight 37° C.; for MIC: Staphylococcus aureus, read-out: Minimum Inhibitory Concentration (M.I.C.)
Text: as §1

[3] = system: Staph. aureus (Meth-Res) A-15097; assay: MIC, tube dilution, Staphylococcus aureus A15097 (Meth-Res); assay type: cell-based; details: overnight 37° C.; for MIC: Staphylococcus aureus
Text: as §1

Ent. cloacae A-9656 = assay: MIC, tube dilution, Enterobacter cloacae A9656; assay type: cell-based; details: overnight 37° C.; for MIC: Enterobacter cloacae, A9656, Enterobacter cloacae A9656, read-out: Minimum Inhibitory Concentration (M.I.C.)
Text: as §1

Pr. morganii A-15153 = assay: MIC, tube dilution, Proteus morganii A15153; assay type: cell-based; details: overnight 37° C.; for MIC: Morganella morganii, A15153, Proteus morganii A15153, read-out: Minimum Inhibitory Concentration (M.I.C.)
Text: as §1

Str. pneumoniae A-9585 = assay: MIC, tube dilution, Streptococcus pneumoniae A9585; assay type: cell-based; details: overnight 37° C., Nutrient Broth; for MIC: Streptococcus pneumoniae, A9585, Str. pneumoniae A9585, read-out: Minimum Inhibitory Concentration (M.I.C.)
Text: as §1

Ps. aeruginosa A-21213 = assay: MIC, tube dilution, Pseudomonas aeruginosa A21213; assay type: cell-based; details: overnight 37° C.; for MIC: read-out: Minimum Inhibitory Concentration (M.I.C.)
Text: as §1

Ser. marcescens A-20019 = assay: MIC, tube dilution, Serratia marcescens A20019; assay type: cell-based; details: overnight 37° C.; for MIC: Serratia marcescens, A20019, Serratia marcescens A20019, read-out: Minimum Inhibitory Concentration (M.I.C.)
Text: as §1

E. coli A-20341-1 = assay: MIC, tube dilution, Escherichia coli A20341-1; assay type: cell-based
Text: as §1

K. pneumoniae A-15130 = assay: MIC, tube dilution, Klebsiella pneumoniae A15130; assay type: cell-based; details: overnight 37° C.; for MIC: Klebsiella pneumoniae, A15130, K. pneumoniae A15130, read-out: Minimum Inhibitory Concentration (M.I.C.)
Text: as §1

Str. faecalis A-20688 = assay: MIC, tube dilution, Streptococcus faecalis A20688; assay type: cell-based; details: overnight 37° C.; for MIC: Enterococcus faecalis, A20688, Str. faecalis A20688, read-out: Minimum Inhibitory Concentration (M.I.C.)
Text: as §1

[4] = system: Staph. aureus A-9537 and 50% serum; assay: MIC, tube dilution, Staph. aureus A9537 + 50% serum; assay type: cell-based, Staphylococcus aureus; details: overnight 37° C.; for MIC: Staphylococcus aureus, read-out: Minimum Inhibitory Concentration (M.I.C.)
Text: as §1

Proteus vulgaris A21559 = assay: MIC, tube dilution, Proteus vulgaris A21559; assay type: cell-based; details: overnight 37° C.; for MIC: Proteus vulgaris, A21559, Proteus vulgaris A21559, read-out: Minimum Inhibitory Concentration (M.I.C.)
Text: as §1

[5] = read-out: Minimum Inhibitory Concentration (M.I.C.), Staph. aureus A15097 (Meth-Res)
[6] = Escherichia coli, A203411; E. coli A20341-1; overnight 37° C.; read-out: Minimum Inhibitory Concentration (M.I.C.)
[7] = Staph. aureus A15097 (Meth-Res), read-out: Minimum Inhibitory Concentration (M.I.C.)
[8] = Pseudomonas aeruginosa, A21213, Pseudomonas aeruginosa A21213
[9] = Escherichia coli, A203411, E. coli A20341-1; overnight 37° C.; read-out: Minimum Inhibitory Concentration (M.I.C.)

Row | Structure (SMILES) | MIC (Pr. vulgaris A-9716) [µg/mL] | MIC (Staph. aureus A-9537) [µg/mL] | MIC (Ps. aeruginosa A-9843A) [µg/mL] | MIC (Ent. cloacae A-9659) [µg/mL] | MIC (E. coli A-15119) [µg/mL] | MIC (Proteus rettgeri A21203) [µg/mL] | MIC [1] [µg/mL] | MIC (Pr. mirabilis A-9900) [µg/mL] | MIC (Str. pyogenes A-9604) [µg/mL] | MIC [2] [µg/mL] | MIC [3, 5] [µg/mL] | MIC (Ent. cloacae A-9656) [µg/mL] | MIC (Pr. morganii A-15153) [µg/mL] | MIC (Str. pneumoniae A-9585) [µg/mL] | MIC (Ps. aeruginosa A-21213; Pseudomonas aeruginosa A21213) [µg/mL] | MIC (Ser. marcescens A-20019) [µg/mL] | MIC (E. coli A-20341-1; [6]) [µg/mL] | MIC (K. pneumoniae A-15130) [µg/mL] | MIC (Str. faecalis A-20688) [µg/mL] | MIC [4] [µg/mL] | further results
1 | Cn1cc(C2=C(C(=O)O)N3C(=O)CC3S2)cn1 (stereo not drawn) [Example 15] | 16 (≈ 63.7 µM) | 1 (≈ 3.98 µM) | 125 (≈ 497 µM) | 125 (≈ 497 µM) | 16 (≈ 63.7 µM) | 16 (≈ 63.7 µM) | > 125 | 16 (≈ 63.7 µM) | 0.5 (≈ 1.99 µM) | 32 (≈ 127 µM) | 125 (≈ 497 µM) | 63 (≈ 251 µM) | 63 (≈ 251 µM) | 0.13 (≈ 0.517 µM) | 125 (≈ 497 µM) | 63 (≈ 251 µM) | > 125 | 125 (≈ 497 µM) | 63 (≈ 251 µM) | > 63 | 
2 | NCCCCCC1=C(C(=O)O)N2C(=O)C[C@H]2S1 [Example 102, (5R) 2-(5'-aminopentyl)-penem-3-carboxylic acid] |  |  |  |  |  |  |  |  |  |  |  |  |  |  |  |  |  |  |  |  | Minimum Inhibitory Concentration (M.I.C.) (Staph. aureus A-9537; Staph. aureus A9537): .03 µg/mL; Minimum Inhibitory Concentration (M.I.C.) (Ps. aeruginosa A-9843A; Pseudomonas aeruginosa A9843A): 8 µg/mL; Minimum Inhibitory Concentration (M.I.C.) (Ent. cloacae A-9659; Enterobacter cloacae A9659): 4 µg/mL; Minimum Inhibitory Concentration (M.I.C.) (E. coli A-15119; E. coli A15119): 1 µg/mL; Minimum Inhibitory Concentration (M.I.C.) (Proteus rettgeri A21203; Proteus rettgeri A21203): 2 µg/mL; Minimum Inhibitory Concentration (M.I.C.) [1]: > 63 µg/mL; Minimum Inhibitory Concentration (M.I.C.) (Pr. mirabilis A-9900; Proteus mirabilis A9900): 2 µg/mL; Minimum Inhibitory Concentration (M.I.C.) (Str. pyogenes A-9604; Str. pyogenes A9604): .016 µg/mL; Minimum Inhibitory Concentration (M.I.C.) [2]: 2 µg/mL; Minimum Inhibitory Concentration (M.I.C.) ([3]; Staph. aureus A15097 (Meth-Res)): 8 µg/mL; Minimum Inhibitory Concentration (M.I.C.) (Ent. cloacae A-9656; Enterobacter cloacae A9656): 2 µg/mL; Minimum Inhibitory Concentration (M.I.C.) (Pr. morganii A-15153; Proteus morganii A15153): 2 µg/mL; Minimum Inhibitory Concentration (M.I.C.) (Proteus vulgaris A21559; Proteus vulgaris A21559): 16 µg/mL; Minimum Inhibitory Concentration (M.I.C.) (Str. pneumoniae A-9585; Str. pneumoniae A9585): .008 µg/mL; Minimum Inhibitory Concentration (M.I.C.) (Ps. aeruginosa A-21213; Pseudomonas aeruginosa A21213): > 63 µg/mL; Minimum Inhibitory Concentration (M.I.C.) (Ser. marcescens A-20019; Serratia marcescens A20019): 2 µg/mL; Minimum Inhibitory Concentration (M.I.C.) (E. coli A-20341-1; E. coli A20341-1; overnight 37° C.): 16 µg/mL; Minimum Inhibitory Concentration (M.I.C.) (K. pneumoniae A-15130; K. pneumoniae A15130): 2 µg/mL; Minimum Inhibitory Concentration (M.I.C.) (Str. faecalis A-20688; Str. faecalis A20688): 4 µg/mL; Minimum Inhibitory Concentration (M.I.C.) [4]: .25 µg/mL
3 | N=C(Cc1ccccc1)NCC1=C(C(=O)O)N2C(=O)CC2S1 (stereo not drawn) [Example 107] |  | 0.5 (≈ 1.58 µM) | 63 (≈ 199 µM) | > 63 | 63 (≈ 199 µM) | 63 (≈ 199 µM) | > 63 | 63 (≈ 199 µM) | 0.5 (≈ 1.58 µM) | 32 (≈ 101 µM) |  | 63 (≈ 199 µM) | 63 (≈ 199 µM) | 0.5 (≈ 1.58 µM) |  | 63 (≈ 199 µM) |  | > 63 | > 63 | 16 | MIC [3, 7]: > 63 µg/mL; MIC (Proteus vulgaris A21559): 63 µg/mL (≈ 199 µM); MIC (Ps. aeruginosa A-21213; [8]): 63 µg/mL (≈ 199 µM); MIC (E. coli A-20341-1; [9]): > 63 µg/mL
4 | N=C(NCC1=C(C(=O)O)N2C(=O)CC2S1)c1ccccc1 (stereo not drawn) [Example 108, 2-Phenylimidoylaminomethylpenem-3-carboxylic Acid] |  | 0.25 (≈ 0.824 µM) | 63 (≈ 208 µM) | 125 (≈ 412 µM) | 63 (≈ 208 µM) | 63 (≈ 208 µM) | > 125 | 63 (≈ 208 µM) | 0.25 (≈ 0.824 µM) | 16 (≈ 52.7 µM) |  | 125 (≈ 412 µM) | 63 (≈ 208 µM) | 0.25 (≈ 0.824 µM) |  | 125 (≈ 412 µM) |  | 125 (≈ 412 µM) | 125 (≈ 412 µM) | 16 | MIC [3, 7]: > 125 µg/mL; MIC (Proteus vulgaris A21559): 125 µg/mL (≈ 412 µM); MIC (Ps. aeruginosa A-21213; [8]): 125 µg/mL (≈ 412 µM); MIC (E. coli A-20341-1; [9]): > 125 µg/mL
5 | CC1(CC2=C(C(=O)O)N3C(=O)CC3S2)OCCO1 (stereo not drawn) [Preparation 22, 2-(Acetonyl-ethylene-ketal)penem-3-carboxylic Acid] | 4 (≈ 14.7 µM) | 0.5 (≈ 1.84 µM) | 125 (≈ 461 µM) | 63 (≈ 232 µM) |  | 16 (≈ 59 µM) | 125 (≈ 461 µM) | 16 (≈ 59 µM) | 0.25 (≈ 0.922 µM) | 32 (≈ 118 µM) | > 125 | 63 (≈ 232 µM) | 8 (≈ 29.5 µM) | 0.13 (≈ 0.479 µM) | 125 (≈ 461 µM) | 63 (≈ 232 µM) | 125 (≈ 461 µM) | 32 (≈ 118 µM) | 125 (≈ 461 µM) | 32 | 
